Laboratory results from patent US12091718B2, “Genetically encoded biosensors for detection of polyketides” (priority 2016, dated 2024).

Legend:
[1] = target: wild-type MphR (MphR(A), macrolide biosensor transcription factor), SEQ ID NO: 2 (gene SEQ ID NO: 1, 28) (Escherichia coli, UniProt Q9EVJ6); assay: cell-based; conditions: for activation of GFP expression under control of WT MphR: result in words
Description: (§1) The sensitivity of biosensors often requires tailoring to meet specific needs. […] A library of MphR gene mutations and variants was created by error-prone PCR (epPCR).
Molecular Biosystems. […] Previous literature reports various induction ranges for MphR-based biosensors depending on the plasmid construct.
Three and five site saturation mutagenesis libraries of the MphR gene that targeted residues of the ligand binding domain were generated using the Quikchange Multi Site-Directed mutagenesis kit (Agilent) and designated QCMS3 and QCMS5, respectively. A third library was generated via error-prone PCR (epPCR) with an average of two amino acid mutations per library clone. Libraries were transformed into E. coli TOP10 cells with plasmid pJZ12 (See FIG. 16 and sequence below) containing genes MphA and mrx and subjected to an initial round of negative sorting in the absence of added ligand via Fluorescence Activated Cell Sorting (FACS) to eliminate variants that are constitutively expressing GFP.
In Table 1, Hill functions were used to derive biosensor transfer functions. K1/2 is the inducer concentration at half maximal induction. Cooperativity is derived from the Hill function to indicate cooperative ligand binding between protein monomers of the MphR dimer. […] The linear range of detection is the linear portion of the dose-response curve with a slope R^2=0.95 or higher.

[2] = target: MphR variant S106F (pikB1, D3; SEQ ID NO: 10, 38) (Escherichia coli, UniProt Q9EVJ6, S106F); assay: cell-based; type: cell-based; conditions: for times more sensitive vs. WT: Table 11
Description: as §1
To test this, the aglycone 6-deoxyerythronolide B (6dEB) was produced via an engineered E. coli strain and purified by flash chromatography. […] To extend this to other systems, the ability of MphR was examined to detect macrolide antibiotics from S. venezuelae.
The ability of the MphR clone “PikB1” to detect a Solithromycin biosynthetic intermediate (see structure below) was determined.

[3] = target: T1, MphR variant A16T/T154M/M155K (M2D6; SEQ ID NO: 16, 44) (Escherichia coli, UniProt Q9EVJ6, A16T/M155K/T154M); assay: MphR-GFP biosensor dose-response, M2D6; type: cell-based; conditions: result in words
T1 construct: GFP under PmphR as reporter
Description: In many cases, it is necessary to determine the presence and concentration of a given polyketide in the presence of other structurally related molecules. Accordingly, the selectivity of MphR requires tailoring towards target molecules.

[4] = target: T2, MphR variant A16T/T154M/M155K with E7 RBS mutation (M2D6-E7RBS) (Escherichia coli, UniProt Q9EVJ6, A16T/M155K/T154M); assay: MphR-GFP biosensor dose-response, M2D6-E7RBS; type: cell-based
T2 construct: E. coli GFP biosensor

[5] = target: MphR variant R122T (Escherichia coli, UniProt Q9EVJ6, R122T); assay: MphR-GFP biosensor dose-response, R122T; type: cell-based; conditions: for Hill coefficient: Table 8
[6] = target: T3, MphR variant G76C (clone A3/epA3; nt A1G in RBS, aa G76C; SEQ ID NO: 3, 29) (Escherichia coli, UniProt Q9EVJ6, G76C); assay: MphR-GFP biosensor dose-response, clone G76C (A3); type: cell-based; conditions: Table 1
T3 construct: pMLGFP-derived plasmid, E. coli TOP10 GFP biosensor
Description: (§2) K1/2 is the inducer concentration at half maximal induction. Cooperativity is derived from the Hill function to indicate cooperative ligand binding between protein monomers of the MphR dimer. Dynamic range is the GFP maximal response minus the minimum GFP response, which in all cases was the response with no ligand. The linear range of detection is the linear portion of the dose-response curve with a slope R^2=0.95 or higher.

[7] = tested on: MphR variant G76C (clone A3/epA3; nt A1G in RBS, aa G76C; SEQ ID NO: 3, 29); assay: MphR-GFP biosensor dose-response, clone G76C (A3); type: cell-based, Escherichia coli; conditions: Table 11
Description: as §2

[8] = target: T4, MphR variant V90I (clone E7/epE7; nt A4T in RBS, aa V90I; SEQ ID NO: 4, 30) (Escherichia coli, UniProt Q9EVJ6, V90I); assay: MphR-GFP biosensor dose-response, clone V90I (E7); type: cell-based; conditions: Table 1
T4 construct: E. coli TOP10 with pJZ12
Description: as §2

[9] = tested on: MphR variant V90I (clone E7/epE7; nt A4T in RBS, aa V90I; SEQ ID NO: 4, 30); assay: MphR-GFP biosensor dose-response, clone V90I (E7); type: cell-based, Escherichia coli; conditions: Table 11
Description: as §2

[10] = target: T5, MphR variant T17R (QCMS3D6; SEQ ID NO: 6, 34) (Escherichia coli, UniProt Q9EVJ6, T17R); assay: MphR-GFP biosensor dose-response, clone T17R; type: cell-based
T5 construct: E. coli TOP10 GFP biosensor
Description: (§3) In Table 1, Hill functions were used to derive biosensor transfer functions. K1/2 is the inducer concentration at half maximal induction. Cooperativity is derived from the Hill function to indicate cooperative ligand binding between protein monomers of the MphR dimer. Dynamic range is the GFP maximal response minus the minimum GFP response, which in all cases was the response with no ligand. The linear range of detection is the linear portion of the dose-response curve with a slope R^2=0.95 or higher.

[11] = target: T6, MphR variant T27G/Q65M (QCMS5B4; SEQ ID NO: 8, 36) (Escherichia coli, UniProt Q9EVJ6, Q65M/T17G); assay: MphR-GFP biosensor dose-response, clone T27G/Q65M; type: cell-based
T6 construct: E. coli TOP10 cells with plasmid pJZ12
Description: as §3

[12] = target: T7, MphR variant T27A/M59E (QCMS5D7; SEQ ID NO: 9, 37) (Escherichia coli, UniProt Q9EVJ6, M59E/T17A); assay: MphR-GFP biosensor dose-response, clone T27A/M59E; type: cell-based; conditions: Table 1
T7 construct: E. coli TOP10 GFP biosensor
Description: as §3

[13] = tested on: MphR variant T27A/M59E (QCMS5D7; SEQ ID NO: 9, 37); assay: MphR-GFP biosensor dose-response, clone T27A/M59E; type: cell-based, Escherichia coli; conditions: Table 11
Description: as §3

[14] = target: T8, wild-type MphR with RBS mutations A1T/G2T/A3C (smRBS1A1, RBS TTCAGGT; SEQ ID NO: 53) (Escherichia coli, UniProt Q9EVJ6); assay: MphR-GFP biosensor dose-response, smRBS1A1; type: cell-based
T8 construct: GFP reporter in E. coli
Description: as §1

[15] = target: T9, wild-type MphR with mutated RBS CTGAGGT (smRBS1G6) (Escherichia coli, UniProt Q9EVJ6); assay: MphR-GFP biosensor dose-response, smRBS1G6; type: cell-based; conditions: Table 4
T9 construct: GFP reporter in E. coli
Description: as §1

[16] = target: T10, wild-type MphR with mutated RBS AAAGGTT (smRBS2E1; SEQ ID NO: 55) (Escherichia coli, UniProt Q9EVJ6); assay: MphR-GFP biosensor dose-response, smRBS2E1; type: cell-based; conditions: Table 4
T10 construct: GFP reporter in E. coli
Description: as §1

[17] = target: T11, wild-type MphR with E7 ribosome binding site mutation only (WT E7-RBS; SEQ ID NO: 32) (Escherichia coli, UniProt Q9EVJ6); assay: cell-based
T11 construct: GFP reporter in E. coli
Description: as §1
To confirm this, new versions of A3 and E7 were constructed that either only included the RBS mutations or the amino acids for each clone.

## CC[C@H]1OC(=O)[C@H](C)[C@@H](O)[C@H](C)[C@@H](O)[C@@H](C)C[C@@H](C)C(=O)[C@H](C)[C@@H](O)[C@H]1C [Compound 6dEB, 6-deoxyerythronolide B]
[1]
  activation of GFP expression under control of WT MphR: failed to activate GFP expression

## CC[C@H]1OC(=O)[C@H](C)[C@@H](O)[C@@H](C)C[C@@H](C)C(=O)/C=C/[C@H]1C [Compound 10-DML, 10-deoxymethynolide]
[1]
  activation of GFP expression under control of WT MphR: neither WT or D3 MphR is activated
[2]; result in words, FIG. 4C
  activation: neither WT or D3 MphR is activated

## CC[C@H]1OC(=O)[C@H](C)[C@@H](O[C@H]2C[C@@](C)(OC)[C@@H](O)[C@H](C)O2)[C@H](C)[C@@H](O[C@@H]2O[C@H](C)C[C@H](N(C)C)[C@H]2O)[C@](C)(OC)C[C@@H](C)C(=O)/C(C)=C/[C@]1(C)O [Solithromycin biosynthetic intermediate]
[1]; K1/2, FIG. 20
  EC50: 70.9 µM
[2]; FIG. 20
  detects the intermediate at concentrations as low as: 0.1 µM
[2]
  times more sensitive vs. WT: 52 times more

## CC[C@H]1OC(=O)[C@H](C)[C@@H](O[C@@H]2O[C@H](C)C[C@H](N(C)C)[C@H]2O)[C@@H](C)C[C@@H](C)C(=O)/C=C/[C@H]1C [YC-17]
[1]; K1/2, Table 12
  EC50: 19.6 ± 0.6 µM
[2]
  EC50: 0.49 ± 0.05 µM
  times more sensitive vs. WT: 40 times more

## CC[C@H]1OC(=O)[C@H](C)[C@@H](O[C@H]2C[C@@](C)(OC)[C@@H](O)[C@H](C)O2)[C@H](C)[C@@H](O[C@@H]2O[C@H](C)C[C@H](N(C)C)[C@H]2O)[C@](C)(O)C[C@@H](C)CN(C)[C@H](C)[C@@H](O)[C@]1(C)O [azithromycin]
[1]; K1/2, Table 6
  EC50: 0.6 ± 0.02 µM
[1]; K1/2, Table 7
  EC50: 0.6 µM
[3]
  activation: little to no activation

## CC[C@H]1OC(=O)[C@H](C)[C@@H](O[C@H]2C[C@@](C)(OC)[C@@H](O)[C@H](C)O2)[C@H](C)[C@@H](O[C@@H]2O[C@H](C)C[C@H](N(C)C)[C@H]2O)[C@](C)(OC)C[C@@H](C)C(=O)[C@H](C)[C@@H](O)[C@]1(C)O [clarithromycin, 6-O-methylerythromycin]
[4]
  EC50: 12.7 µM
[5]
  EC50: 24.2 µM
  Hill coefficient: 3.03

## CC[C@H]1OC(=O)[C@H](C)[C@@H](O[C@H]2C[C@@](C)(OC)[C@@H](O)[C@H](C)O2)[C@H](C)[C@@H](O[C@@H]2O[C@H](C)C[C@H](N(C)C)[C@H]2O)[C@](C)(O)C[C@@H](C)C(=O)[C@H](C)[C@@H](O)[C@]1(C)O [erythromycin A]
[1]; Table 1, derived from the Hill function
  Cooperativity: 4.44 ± 1.52
[1]; Table 4
  Hillc: 3.6 ± 0.3
[1]; Table 8
  Hill coefficient: 3.52
[1]; Table 9
  Cooperativity: 3.39
[1]
  activation of GFP expression under control of WT MphR: good activator
[6]
  Cooperativity: 1.80 ± 0.01
[7]
  times more sensitive vs. WT: 3.6 times more
[8]
  Cooperativity: 2.84 ± 0.42
[9]
  times more sensitive vs. WT: 3.0 times more
[10]; Table 1
  Cooperativity: 3.16 ± 0.13
[10]; Table 11
  times more sensitive vs. WT: 2.4 times more
[11]; Table 1
  Cooperativity: 2.92 ± 0.17
[11]; Table 11
  times more sensitive vs. WT: 1.5 times more
[12]
  Cooperativity: 2.59 ± 0.04
[13]
  times more sensitive vs. WT: 2.0 times more
[14]; Table 4
  Hillc: 1.7 ± 0.1
[14]; Table 11
  times more sensitive vs. WT: 9.9 times more
[15]
  Hillc: 5.4 ± 1.2
[16]
  Hillc: 3.9 ± 0.5
[4]
  enhanced sensitivity: 2 fold
[5]
  Hill coefficient: 2.39

## CC[C@H]1OC(=O)[C@H](C)[C@@H](O[C@H]2C[C@@](C)(OC)[C@@H](O)[C@H](C)O2)[C@H](C)[C@@H](O[C@@H]2O[C@H](C)C[C@H](N(C)C)[C@H]2O)[C@](C)(O)C[C@@H](C)C(=O)[C@H](C)[C@@H](O)[C@H]1C [erythromycin B]
[1]; K1/2, Table 9
  EC50: 1.72 µM
[1]; Table 9
  Cooperativity: 1.99
[1]
  activation of GFP expression under control of WT MphR: activate MphR-WT in a nearly identical manner

## CC[C@H]1OC(=O)[C@H](C)[C@@H](O[C@H]2C[C@@](C)(O)[C@@H](O)[C@H](C)O2)[C@H](C)[C@@H](O[C@@H]2O[C@H](C)C[C@H](N(C)C)[C@H]2O)[C@](C)(O)C[C@@H](C)C(=O)[C@H](C)[C@@H](O)[C@]1(C)O [erythromycin C]
[1]
  activation of GFP expression under control of WT MphR: activate MphR-WT in a nearly identical manner

## CC[C@H]1OC(=O)[C@H](C)C(=O)[C@H](C)[C@@H](O[C@@H]2O[C@H](C)C[C@H](N(C)C)[C@H]2O)[C@@H](C)C[C@@H](C)C(=O)/C=C/[C@H]1C [narbomycin]
[1]; read-out: Activation ratio (5 uM/0 uM)
  fold induction at 5 µM: 4

## CC[C@H]1OC(=O)[C@H](C)C(=O)[C@H](C)[C@@H](O[C@@H]2O[C@H](C)C[C@H](N(C)C)[C@H]2O)[C@@H](C)C[C@@H](C)C(=O)/C=C/[C@]1(C)O [pikromycin]
[1]; K1/2, Table 5
  EC50: 97 ± 2 µM
[1]; K1/2, Table 14
  EC50: 96.6 ± 2.7 µM
[17]
  EC50: 50 ± 20 µM
[14]
  EC50: 48 ± 5 µM
  sensitivity improved, compared to the wild-type MphR: 2 fold
[2]
  EC50: 0.81 ± 0.02 µM
  times more sensitive vs. WT: 118 times more

## CC[C@H]1OC(=O)[C@H](C)[C@@H](O[C@H]2C[C@@](C)(OC)[C@@H](O)[C@H](C)O2)[C@H](C)[C@@H](O[C@@H]2O[C@H](C)C[C@H](N(C)C)[C@H]2O)[C@](C)(O)C[C@@H](C)/C(=N\OCOCCOC)[C@H](C)[C@@H](O)[C@]1(C)O [roxithromycin]
[1]; K1/2, Table 6
  EC50: 67.2 ± 3.41 µM
[1]; K1/2, Table 7
  EC50: 74.1 µM
[3]
  activation: little to no activation
